Experimental data as given in PMC8010095, “Discovery of novel antituberculosis agents among 3-phenyl-5-(1-phenyl-1H-[1,2,3]triazol-4-yl)-[1,2,4]oxadiazole derivatives targeting aminoacyl-tRNA synthetases” (Scientific Reports, 2021).
Values after ≈ are worked out from the molar mass of the structure shown.

Columns and labels:
[1] = tested on: moxifloxacin-resistant strain H37Rv (gyrA^D94K) (MOX3); type: cell-based, Mycobacterium tuberculosis
[2] = tested on: rifampin-resistant strain H37Rv (rpoB^S450L) (ATCC #35,838); type: cell-based, Mycobacterium tuberculosis
[3] = tested on: isoniazid-resistant H37Rv (katG^del) (MS015); test: microbe, parasite or virus in culture; type: cell-based; conditions: > 80% reduction in growth, screened at 20, 2 and 0.2 mg/L, 7H9 complete medium; for MIC: Mycobacterium tuberculosis, H37RV, read-out: Growth inhibition cutoff, H37Rv (katG^del)
[4] = tested on: M. tuberculosis mono-resistant strains; test: microbe, parasite or virus in culture; type: cell-based

Nc1c(-c2nc(-c3ccc(F)cc3)no2)nnn1-c1ccc(Br)cc1 [Compound 11]
Growth inhibition cutoff, H37Rv (gyrA^D94K) [1]: > 20 mg/L | Growth inhibition cutoff, H37Rv (rpoB^S450L) [2]: > 20 mg/L | Growth inhibition cutoff, H37Rv (katG^del) [3]: > 20 mg/L

COc1ccc(-n2nnc(-c3nc(-c4ccc(F)cc4)no3)c2N)cc1OC [Compound 21]
Growth inhibition cutoff, H37Rv (gyrA^D94K) [1]: > 20 mg/L | Growth inhibition cutoff, H37Rv (rpoB^S450L) [2]: > 20 mg/L | Growth inhibition cutoff, H37Rv (katG^del) [3]: > 20 mg/L

Nc1c(-c2nc(-c3ccc(F)cc3)no2)nnn1-c1ccc(Cl)cc1 [Compound 10]
Growth inhibition cutoff, H37Rv (gyrA^D94K) [1]: > 20 mg/L | Growth inhibition cutoff, H37Rv (rpoB^S450L) [2]: > 20 mg/L | Growth inhibition cutoff, H37Rv (katG^del) [3]: > 20 mg/L

CCOc1ccc(-c2noc(-c3nnn(-c4ccccc4F)c3N)n2)cc1 [Compound 39]
Growth inhibition cutoff, H37Rv (gyrA^D94K) [1]: > 20 mg/L | Growth inhibition cutoff, H37Rv (rpoB^S450L) [2]: > 20 mg/L | Growth inhibition cutoff, H37Rv (katG^del) [3]: > 20 mg/L

COc1ccc(C)cc1-n1nnc(-c2nc(-c3ccc(F)cc3)no2)c1N [Compound 28]
Growth inhibition cutoff, H37Rv (gyrA^D94K) [1]: > 20 mg/L | Growth inhibition cutoff, H37Rv (rpoB^S450L) [2]: > 20 mg/L | Growth inhibition cutoff, H37Rv (katG^del) [3]: > 20 mg/L

COc1ccc(OC)c(-n2nnc(-c3nc(-c4ccc(F)cc4)no3)c2N)c1 [Compound 29]
Growth inhibition cutoff, H37Rv (gyrA^D94K) [1]: > 20 mg/L | Growth inhibition cutoff, H37Rv (rpoB^S450L) [2]: > 20 mg/L | Growth inhibition cutoff, H37Rv (katG^del) [3]: > 20 mg/L

Nc1c(-c2nc(-c3ccc(F)cc3)no2)nnn1-c1cccc(C(F)(F)F)c1 [Compound 19]
Growth inhibition cutoff, H37Rv (gyrA^D94K) [1]: > 20 mg/L | Growth inhibition cutoff, H37Rv (rpoB^S450L) [2]: > 20 mg/L | Growth inhibition cutoff, H37Rv (katG^del) [3]: > 20 mg/L

CCOc1ccccc1-n1nnc(-c2nc(-c3ccc(F)cc3)no2)c1N [Compound 30]
Growth inhibition cutoff, H37Rv (gyrA^D94K) [1]: > 20 mg/L | Growth inhibition cutoff, H37Rv (rpoB^S450L) [2]: > 20 mg/L | Growth inhibition cutoff, H37Rv (katG^del) [3]: > 20 mg/L

Nc1c(-c2nc(-c3ccc(F)cc3)no2)nnn1-c1cccc(Cl)c1 [Compound 16]
Growth inhibition cutoff, H37Rv (gyrA^D94K) [1]: > 20 mg/L | Growth inhibition cutoff, H37Rv (rpoB^S450L) [2]: > 20 mg/L | Growth inhibition cutoff, H37Rv (katG^del) [3]: > 20 mg/L

COc1ccc(-c2noc(-c3nnn(-c4ccc(Cl)cc4)c3C)n2)cc1OC [Compound 38]
Growth inhibition cutoff, H37Rv (gyrA^D94K) [1]: > 20 mg/L | Growth inhibition cutoff, H37Rv (rpoB^S450L) [2]: > 20 mg/L | Growth inhibition cutoff, H37Rv (katG^del) [3]: > 20 mg/L

CCOc1ccc(-c2noc(-c3nnn(-c4ccccc4Cl)c3N)n2)cc1 [Compound 40]
Growth inhibition cutoff, H37Rv (gyrA^D94K) [1]: 2 to 20 mg/L | growth inhibition cutoff [4]: 5.22 to 52.2 µM | Growth inhibition cutoff, H37Rv (rpoB^S450L) [2]: > 20 mg/L | Growth inhibition cutoff, H37Rv (katG^del) [3]: > 20 mg/L

COc1ccc(-n2nnc(-c3nc(-c4ccc(F)cc4)no3)c2N)cc1Cl [Compound 17, 3-(3-chloro-4-methoxy-phenyl)-5-[3-(4-fluoro-phenyl)-[1,2,4]oxadiazol-5-yl]-3H-[1,2,3]triazol-4-ylamine]
Growth inhibition cutoff, H37Rv (gyrA^D94K) [1]: > 20 mg/L | Growth inhibition cutoff, H37Rv (rpoB^S450L) [2]: > 20 mg/L | Growth inhibition cutoff, H37Rv (katG^del) [3]: > 20 mg/L

COc1ccc(Cl)cc1-n1nnc(-c2nc(-c3ccc(F)cc3)no2)c1N [Compound 27]
Growth inhibition cutoff, H37Rv (gyrA^D94K) [1]: > 20 mg/L | MIC ([4]; Mycobacterium tuberculosis, read-out: growth inhibition cutoff): 5.17 to 51.7 µM (≈ 2 to 20 µg/mL) | Growth inhibition cutoff, H37Rv (rpoB^S450L) [2]: 2 to 20 mg/L | MIC [3]: > 20 µg/mL

Cc1ccccc1-c1noc(-c2nnn(-c3ccc(Br)cc3)c2C)n1 [Compound 8]
Growth inhibition cutoff, H37Rv (gyrA^D94K) [1]: > 20 mg/L | Growth inhibition cutoff, H37Rv (rpoB^S450L) [2]: > 20 mg/L | Growth inhibition cutoff, H37Rv (katG^del) [3]: > 20 mg/L

COc1ccc(-n2nnc(-c3nc(-c4ccc(F)cc4)no3)c2N)cc1 [Compound 13]
Growth inhibition cutoff, H37Rv (gyrA^D94K) [1]: > 20 mg/L | Growth inhibition cutoff, H37Rv (rpoB^S450L) [2]: > 20 mg/L | MIC [3]: > 20 µg/mL

COc1ccccc1-n1nnc(-c2nc(-c3ccc(F)cc3)no2)c1N [Compound 26]
Growth inhibition cutoff, H37Rv (gyrA^D94K) [1]: > 20 mg/L | Growth inhibition cutoff, H37Rv (rpoB^S450L) [2]: > 20 mg/L | Growth inhibition cutoff, H37Rv (katG^del) [3]: > 20 mg/L

CCOc1ccc(-c2noc(-c3nnn(-c4ccc(F)c(Cl)c4)c3N)n2)cc1 [Compound 41]
Growth inhibition cutoff, H37Rv (gyrA^D94K) [1]: > 20 mg/L | Growth inhibition cutoff, H37Rv (rpoB^S450L) [2]: > 20 mg/L | Growth inhibition cutoff, H37Rv (katG^del) [3]: > 20 mg/L

Cc1c(-c2nc(-c3ccccc3F)no2)nnn1-c1cc(F)ccc1F [Compound 6]
Growth inhibition cutoff, H37Rv (gyrA^D94K) [1]: > 20 mg/L | Growth inhibition cutoff, H37Rv (rpoB^S450L) [2]: > 20 mg/L | Growth inhibition cutoff, H37Rv (katG^del) [3]: > 20 mg/L

Nc1c(-c2nc(-c3ccccc3)no2)nnn1-c1ccccc1F [Compound 1]
Growth inhibition cutoff, H37Rv (gyrA^D94K) [1]: > 20 mg/L | Growth inhibition cutoff, H37Rv (rpoB^S450L) [2]: > 20 mg/L | Growth inhibition cutoff, H37Rv (katG^del) [3]: > 20 mg/L

Nc1c(-c2nc(-c3ccc(F)cc3)no2)nnn1-c1ccccc1 [Compound 9]
Growth inhibition cutoff, H37Rv (gyrA^D94K) [1]: > 20 mg/L | Growth inhibition cutoff, H37Rv (rpoB^S450L) [2]: > 20 mg/L | Growth inhibition cutoff, H37Rv (katG^del) [3]: > 20 mg/L

COc1ccc(-c2noc(-c3nnn(-c4cc(Cl)ccc4OC)c3N)n2)cc1 [Compound 37]
Growth inhibition cutoff, H37Rv (gyrA^D94K) [1]: > 20 mg/L | Growth inhibition cutoff, H37Rv (rpoB^S450L) [2]: > 20 mg/L | Growth inhibition cutoff, H37Rv (katG^del) [3]: > 20 mg/L

Nc1c(-c2nc(-c3ccc(F)cc3)no2)nnn1-c1cccc(F)c1 [Compound 15]
Growth inhibition cutoff, H37Rv (gyrA^D94K) [1]: > 20 mg/L | Growth inhibition cutoff, H37Rv (rpoB^S450L) [2]: > 20 mg/L | Growth inhibition cutoff, H37Rv (katG^del) [3]: > 20 mg/L

Nc1c(-c2nc(-c3ccccc3)no2)nnn1-c1ccc(C(F)(F)F)c(Cl)c1 [Compound 2]
Growth inhibition cutoff, H37Rv (gyrA^D94K) [1]: > 20 mg/L | Growth inhibition cutoff, H37Rv (rpoB^S450L) [2]: > 20 mg/L | MIC [3]: > 20 µg/mL

Nc1c(-c2nc(-c3ccc(Br)cc3)no2)nnn1-c1cccc(F)c1 [Compound 33]
Growth inhibition cutoff, H37Rv (gyrA^D94K) [1]: > 20 mg/L | Growth inhibition cutoff, H37Rv (rpoB^S450L) [2]: > 20 mg/L | Growth inhibition cutoff, H37Rv (katG^del) [3]: > 20 mg/L

Cc1c(-c2nc(-c3ccccc3F)no2)nnn1-c1ccc(F)c(Cl)c1 [Compound 4]
Growth inhibition cutoff, H37Rv (gyrA^D94K) [1]: > 20 mg/L | Growth inhibition cutoff, H37Rv (rpoB^S450L) [2]: > 20 mg/L | Growth inhibition cutoff, H37Rv (katG^del) [3]: > 20 mg/L

CCc1ccc(-n2nnc(-c3nc(-c4ccc(F)cc4)no3)c2N)cc1 [Compound 14]
Growth inhibition cutoff, H37Rv (gyrA^D94K) [1]: > 20 mg/L | Growth inhibition cutoff, H37Rv (rpoB^S450L) [2]: > 20 mg/L | Growth inhibition cutoff, H37Rv (katG^del) [3]: > 20 mg/L

Nc1c(-c2nc(-c3ccc(Cl)cc3)no2)nnn1-c1ccc(Br)cc1F [Compound 31]
Growth inhibition cutoff, H37Rv (gyrA^D94K) [1]: > 20 mg/L | Growth inhibition cutoff, H37Rv (rpoB^S450L) [2]: > 20 mg/L | Growth inhibition cutoff, H37Rv (katG^del) [3]: > 20 mg/L

COc1ccccc1-n1nnc(-c2nc(-c3ccc(Br)cc3)no2)c1N [Compound 35]
Growth inhibition cutoff, H37Rv (gyrA^D94K) [1]: > 20 mg/L | Growth inhibition cutoff, H37Rv (rpoB^S450L) [2]: > 20 mg/L | Growth inhibition cutoff, H37Rv (katG^del) [3]: > 20 mg/L

Nc1c(-c2nc(-c3ccc(F)cc3)no2)nnn1-c1ccc(F)cc1 [Compound 12]
Growth inhibition cutoff, H37Rv (gyrA^D94K) [1]: > 20 mg/L | Growth inhibition cutoff, H37Rv (rpoB^S450L) [2]: > 20 mg/L | Growth inhibition cutoff, H37Rv (katG^del) [3]: > 20 mg/L

Nc1c(-c2nc(-c3ccc(Br)cc3)no2)nnn1-c1ccc(F)cc1 [Compound 32]
Growth inhibition cutoff, H37Rv (gyrA^D94K) [1]: > 20 mg/L | Growth inhibition cutoff, H37Rv (rpoB^S450L) [2]: > 20 mg/L | Growth inhibition cutoff, H37Rv (katG^del) [3]: > 20 mg/L

Cc1c(-c2nc(-c3ccccc3F)no2)nnn1-c1ccc(Br)cc1 [Compound 5]
Growth inhibition cutoff, H37Rv (gyrA^D94K) [1]: 2 to 20 mg/L | Growth inhibition cutoff, H37Rv (rpoB^S450L) [2]: 2 to 20 mg/L | Growth inhibition cutoff, H37Rv (katG^del) [3]: > 20 mg/L

CCOc1ccccc1-n1nnc(-c2nc(-c3ccc(Br)cc3)no2)c1N [Compound 36]
Growth inhibition cutoff, H37Rv (gyrA^D94K) [1]: > 20 mg/L | Growth inhibition cutoff, H37Rv (rpoB^S450L) [2]: > 20 mg/L | Growth inhibition cutoff, H37Rv (katG^del) [3]: > 20 mg/L

Nc1c(-c2nc(-c3ccc(F)cc3)no2)nnn1-c1ccccc1F [Compound 23]
Growth inhibition cutoff, H37Rv (gyrA^D94K) [1]: > 20 mg/L | Growth inhibition cutoff, H37Rv (rpoB^S450L) [2]: > 20 mg/L | Growth inhibition cutoff, H37Rv (katG^del) [3]: > 20 mg/L

Nc1c(-c2nc(-c3ccc(F)cc3)no2)nnn1-c1ccc(F)cc1F [Compound 22]
Growth inhibition cutoff, H37Rv (gyrA^D94K) [1]: > 20 mg/L | Growth inhibition cutoff, H37Rv (rpoB^S450L) [2]: > 20 mg/L | Growth inhibition cutoff, H37Rv (katG^del) [3]: > 20 mg/L

COc1cccc(-n2nnc(-c3nc(-c4ccc(F)cc4)no3)c2N)c1 [Compound 20]
Growth inhibition cutoff, H37Rv (gyrA^D94K) [1]: 2 to 20 mg/L | growth inhibition cutoff [4]: 5.7 to 57 µM | Growth inhibition cutoff, H37Rv (rpoB^S450L) [2]: 2 to 20 mg/L | Growth inhibition cutoff, H37Rv (katG^del) [3]: > 20 mg/L

Cc1cccc(-n2nnc(-c3nc(-c4ccc(F)cc4)no3)c2N)c1 [Compound 18]
Growth inhibition cutoff, H37Rv (gyrA^D94K) [1]: > 20 mg/L | Growth inhibition cutoff, H37Rv (rpoB^S450L) [2]: > 20 mg/L | Growth inhibition cutoff, H37Rv (katG^del) [3]: > 20 mg/L

Cc1c(-c2nc(-c3ccccc3Cl)no2)nnn1-c1cccc(F)c1 [Compound 7]
Growth inhibition cutoff, H37Rv (gyrA^D94K) [1]: > 20 mg/L | Growth inhibition cutoff, H37Rv (rpoB^S450L) [2]: > 20 mg/L | Growth inhibition cutoff, H37Rv (katG^del) [3]: > 20 mg/L
